In brackets after ≈: the same amount, converted by molar mass. Like-named read-outs stand apart in the source and are kept apart here.
Assays:
[1] = system: Streptococcus pneumoniae Type I; experiment: MIC by agar plate dilution method; type: cell-based; details: 10^6 CFU/ml, 37° C., 18 hours
Experimental: (§1) Test Method: In accordance with a standard method by Japan Chemotherapeutic Society [Chemotherapy, 29(1), pages 76-79, 1981], agar plate dilution method was used and the MIC was measured. Thus, bouillon for measuring sensitivity was used and the bacterial liquid cultured at 37° C. for 18 hours was diluted to an extent of 10^6 CFU/ml using said medium. This was inoculated to an agar medium containing drug for measuring sensitivity using a microplanter, cultured at 37° C. for 18 hours, and MIC was measured. Ofloxacin was used for comparison/control.
(§2) The compound of Example 2 was used as representative of the compounds of the present invention and ofloxacin was used as the Comparison/Control.

[2] = system: Staphylococcus aureus 209-P JC-1; experiment: MIC by agar plate dilution method; type: cell-based; details: 10^6 CFU/ml, 37° C., 18 hours
Experimental: as §1, §2

[3] = system: Serratia marcescens IFO 3736; experiment: MIC by agar plate dilution method; type: cell-based; details: IFO3736, 10^6 CFU/ml, 37° C., 18 hours
Experimental: as §1, §2

[4] = system: Klebsiella pneumoniae NCTC 9632; experiment: MIC by agar plate dilution method; type: cell-based
Experimental: as §1, §2

[5] = system: Bacillus subtilis ATCC 6633; experiment: MIC by agar plate dilution method; type: cell-based; details: ATCC6633, 10^6 CFU/ml, 37° C., 18 hours
Experimental: as §1, §2

[6] = system: Escherichia coli N1JH JC-2; experiment: MIC by agar plate dilution method; type: cell-based
Experimental: as §1, §2

[7] = system: Proteus mirabilis IFO 3849; experiment: MIC by agar plate dilution method; type: cell-based; details: IFO3849, 10^6 CFU/ml, 37° C., 18 hours
Experimental: as §1, §2

[8] = system: Shigella flexneri 2a EW-10; experiment: MIC by agar plate dilution method; type: cell-based; details: 2AEW10, 10^6 CFU/ml, 37° C., 18 hours
Experimental: as §1, §2

[9] = system: Streptococcus pyogenes S-23; experiment: MIC by agar plate dilution method; type: cell-based; details: S23, 10^6 CFU/ml, 37° C., 18 hours
Experimental: as §1, §2

[10] = system: Pseudomonas aeruginosa IFO 3445; experiment: MIC by agar plate dilution method; type: cell-based; details: IFO3445, 10^6 CFU/ml, 37° C., 18 hours
Experimental: as §1, §2

E. coli KC-14 = experiment: Therapeutic effect on infection in mice, E. coli; type: in vivo, ddY strain male mice; details: E. coli KC-14, 5.1×10^4 CFU/mouse i.p.; drug orally once 2 hours after inoculation; survival after one week, Probit method
Experimental: (§3) Test method: E. coli KC-14 and P. aeruginosa E-2 were suspended in 5% mucin and 0.5 ml of the suspension was injected intraperitoneally to ddY strain male mice (body weight: ca. 20 g; four weeks age; 10 mice per group). The amount of the bacteria inoculated was 5.1×10^4 CFU/mouse for E. coli and 7.5×10^4 CFU/mouse for P. aeruginosa. The drug was given orally once after 2 hours of inoculation and, out of the survival rate after one week, an ED50 was calculated by a Probit method. Ofloxacin was used as the comparison/control.

P. aeruginosa E-2 = experiment: Therapeutic effect on infection in mice, P. aeruginosa; type: in vivo, ddY strain male mice; details: P. aeruginosa E-2, 7.5×10^4 CFU/mouse i.p.; drug orally once 2 hours after inoculation; survival after one week, Probit method
Experimental: as §3

In the case of CC1COc2c(N3CCN(C)CC3)c(F)cc3c(=O)c(C(=O)O)cn1c23 (racemic) [Ofloxacin, reference compound], the MIC [1] is reported as 1.56 µg/mL (≈ 4.32 µM), the MIC [2] is reported as 0.39 µg/mL (≈ 1.08 µM) and the MIC [3] is reported as 0.78 µg/mL (≈ 2.16 µM). The MIC ([4]; NCTC9632, Klebsiella pneumoniae NCTC 9632, 10^6 CFU/ml, 37° C., 18 hours, read-out: MIC) was 0.05 µg/mL (≈ 0.138 µM), the MIC [5] was 0.1 µg/mL (≈ 0.277 µM) and the MIC ([6]; N1JHJC2, Escherichia coli N1JH JC-2, 10^6 CFU/ml, 37° C., 18 hours, read-out: MIC) was 0.1 µg/mL (≈ 0.277 µM). For the same molecule, the MIC [7] was 0.39 µg/mL (≈ 1.08 µM), the MIC [8] was 0.025 µg/mL (≈ 0.0692 µM) and the MIC [9] was 1.56 µg/mL (≈ 4.32 µM). For the same molecule, the MIC [10] was 1.56 µg/mL (≈ 4.32 µM), the ED50 (E. coli KC-14) was 0.011 mg/mouse and the ED50 (P. aeruginosa E-2) was 0.692 mg/mouse.

CCOC(=O)c1c2n(c3cc(N4CCN(Cc5oc(=O)oc5C)CC4)c(F)cc3c1=O)C(C)S2 (stereo not drawn) [Example 1, Ethyl 6-fluoro-1-methyl-7-[4-(5-methyl-2-oxo-1,3-dioxolen-4yl)methyl-1-piperazinyl]-4oxo-4H-[1,3-]thiazeto[3,2-a]quinoline-3-carboxylate] was tested, and the ED50 (P. aeruginosa E-2) was 0.354 mg/mouse.

Molecule Cc1oc(=O)oc1CN1CCN(c2cc3c(cc2F)c(=O)c(C(=O)O)c2n3C(C)S2)CC1 (stereo not drawn) [Example 2] has an MIC [1] of 0.39 µg/mL (≈ 0.845 µM), an MIC [2] of 0.1 µg/mL (≈ 0.217 µM) and an MIC [3] of 0.2 µg/mL (≈ 0.433 µM). The MIC ([4]; Klebsiella pneumoniae, NCTC9632, 18 h) was 0.0125 µg/mL (≈ 0.0271 µM), the MIC [5] was 0.05 µg/mL (≈ 0.108 µM) and the MIC ([6]; Escherichia coli, N1JHJC2, 18 h) was 0.0125 µg/mL (≈ 0.0271 µM). The MIC [7] was 0.025 µg/mL (≈ 0.0542 µM), the MIC [8] was 0.0125 µg/mL (≈ 0.0271 µM) and the MIC [9] was 0.39 µg/mL (≈ 0.845 µM). The MIC [10] was 0.2 µg/mL (≈ 0.433 µM), the ED50 (E. coli KC-14) was 0.0078 mg/mouse and the ED50 (P. aeruginosa E-2) was 0.154 mg/mouse.

Work on Cc1oc(=O)oc1CN1CCN(c2cc3c(cc2F)c(=O)c(C(=O)O)c2n3C(C)S2)CC1.Cl (stereo not drawn) [Example 3, 6-Fluoro-1-methyl-7-[4-(5-methyl-2-oxo-1,3-dioxolen-4-yl)methyl-1-piperazinyl]-4-oxo-4H-[1,3]thiazeto[3,2-a]quinoline-3-carboxylic acid hydrochloride] yielded an ED50 (E. coli KC-14) of 0.0078 mg/mouse and an ED50 (P. aeruginosa E-2) of 0.125 mg/mouse.

For CS(=O)(=O)O.Cc1oc(=O)oc1CN1CCN(c2cc3c(cc2F)c(=O)c(C(=O)O)c2n3C(C)S2)CC1 (stereo not drawn) [Example 4, 6-Fluoro-1-methyl-7-[4-(5-methyl-2-oxo-1,3-dioxolen-4-yl)methyl-1-piperazinyl]-4-oxo-4H-[1,3]thiazeto[3,2-a]quinoline-3-carboxylic acid methanesulfonate], the ED50 (E. coli KC-14) was 0.0078 mg/mouse and the ED50 (P. aeruginosa E-2) was 0.125 mg/mouse.

Cc1oc(=O)oc1CN1CCN(c2c(F)cc3c(=O)c(C(=O)O)c4n(c3c2F)C(C)S4)CC1 (stereo not drawn) [Example 8, 6,8-Difluoro-1-methyl-7-[4-(5-methyl-2-oxo-1,3-dioxolen-4-yl)methyl-1-piperazinyl]-4-oxo-4-[1,3]-thiazeto[3,2-a]quinoline-3-carboxylic acid] gave an ED50 (E. coli KC-14) of 0.0078 mg/mouse and an ED50 (P. aeruginosa E-2) of 0.125 mg/mouse.

For COc1c(N2CCN(Cc3oc(=O)oc3C)CC2)c(F)cc2c(=O)c(C(=O)O)c3n(c12)C(C)S3 (stereo not drawn) [Example 14, 6-Fluoro-8-methoxy-1-methyl-7-[4-(5-methyl-2-oxo-1,3-dioxolen-4-yl)methyl-1-piperazinyl]-4-oxo-4H-[1,3]-thiazeto[3,2-a]quinoline-3-carboxylic acid], the ED50 (E. coli KC-14) was 0.0152 mg/mouse and the ED50 (P. aeruginosa E-2) was 0.427 mg/mouse.

Reference: US5086049A, “7[4-(5 methyl-2-oxo-1,3-dioxalen-4-yl)methyl 1-piperzinyl]-4-oxo-4H-[1,3]thiazeto[3,2-a]quinoline-3-carboxylic acids” (Nipponshinyaku Co., Ltd., priority 1987, dated 1992)
